Measurements published in patent US7612104B2, “Bicyclic aryl-sulfonic acid [1,3,4]-thiadiazol-2-yl-amides, processes for their preparation, pharmaceutical compositions and methods for their use” (Sanofi-Aventis, priority 2005, dated 2009).

Molecular target: T1, human PPARdelta (Homo sapiens, UniProt Q03181)
T1 construct: amino acids S139-Y441; expressed in transfected cells; host or cells: HEK cells, stably transfected (pcDNA3, CMV promoter)
T1 sequence (Q03181 139-441): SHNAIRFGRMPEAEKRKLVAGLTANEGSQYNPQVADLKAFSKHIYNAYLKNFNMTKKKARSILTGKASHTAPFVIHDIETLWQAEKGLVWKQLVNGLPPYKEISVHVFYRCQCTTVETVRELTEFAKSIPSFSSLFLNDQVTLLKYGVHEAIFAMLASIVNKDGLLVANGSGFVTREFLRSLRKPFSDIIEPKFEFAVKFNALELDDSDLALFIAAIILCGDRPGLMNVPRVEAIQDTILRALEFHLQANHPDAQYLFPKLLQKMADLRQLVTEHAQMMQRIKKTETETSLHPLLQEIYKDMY
Assay: Cellular PPARdelta assay (stably transfected HEK reporter cell line, luciferase)
Type: cell-based
Conditions: GR-GAL4-humanPPARdelta-LBD
Description: The activity of PPARalpha agonists is determined in a 3-day assay which is described below:
The PPARalpha reporter cell line is cultivated to 80% confluence in DMEM (#41965-039, Invitrogen) which is mixed with the following additions: 10% cs-FCS (fetal calf serum; #SH-30068.03, Hyclone), 0.5 mg/ml zeocin (#R250-01, Invitrogen), 0.5 mg/ml G418 (#10131-027, Invitrogen), 1% penicillin-streptomycin solution (#15140-122, Invitrogen) and 2 mM L-glutamine (#25030-024, Invitrogen). The cultivation takes place in standard cell culture bottles (#353112, Becton Dickinson) in a cell culture incubator at 37° C. in the presence of 5% CO2. The 80%-confluent cells are washed once with 15 ml of PBS (#14190-094, Invitrogen), treated with 3 ml of trypsin solution (#25300-054, Invitrogen) at 37° C. for 2 min, taken up in 5 ml of the DMEM described and counted in a cell counter. After dilution to 500.000 cells/ml, 35,000 cells are seeded in each well of a 96 well microtiter plate with a clear plastic base (#3610, Corning Costar). The plates are incubated in the cell culture incubator at 37° C. and 5% CO2 for 24 h.
PPARalpha agonists to be tested are dissolved in DMSO in a concentration of 10 mM. This stock solution is diluted in DMEM (#41965-039, Invitrogen) which is mixed with 5% cs-FCS (#SH-30068.03, Hyclone), 2 mM L-glutamine (#25030-024, Invitrogen) and the previously described antibiotics (zeocin, G418, penicillin and streptomycin). Test substances are tested in 11 different concentrations in the range from 10 μM to 100 pM.
The medium of the PPARalpha reporter cell line seeded on day 1 is completely removed by aspiration, and the test substances diluted in medium are immediately added to the cells. The dilution and addition of the substances is carried out by a robot (Beckman FX). The final volume of the test substances diluted in medium is 100 μl per well of a 96 well microtiter plate. The DMSO concentration in the assay is less than 0.1% v/v in order to avoid cytotoxic effects of the solvent.
The assay plates are incubated in an incubator at 37° C. and 5% CO2 for 24 h.
The PPARalpha reporter cells treated with the test substances are removed from the incubator, and the medium is aspirated off. The cells are lyzed by pipetting 50 μl of Bright Glo reagent (from Promega) into each well of a 96 well microtiter plate. After incubation at room temperature in the dark for 10 minutes, the microtiter plates are measured in the luminometer (Trilux from Wallac). The measuring time for each well of a microtiter plate is 1 sec.
The raw data from the luminometer are transferred into a Microsoft Excel file. Dose-effect plots and EC50 values of PPAR agonists are calculated using the XL.Fit program as specified by the manufacturer (IDBS).
The potency of substances which bind to human PPARdelta and activate it in an agonistic manner is analyzed using a stably transfected HEK cell line (HEK=human embryo kidney) which is referred to here as PPARdelta reporter cell line. In analogy to the assay described for PPARalpha, the PPARdelta reporter cell line also contains two genetic elements, a luciferase reporter element (pdeltaM-GAL4-Luc-Zeo) and a PPARdelta fusion protein (GR-GAL4-humanPPARdelta-LBD) which mediates expression of the luciferase reporter element depending on a PPARdelta ligand. The stably and constitutively expressed fusion protein GR-GAL4-humanPPARdelta-LBD binds in the cell nucleus of the PPARdelta reporter cell line via the GAL4 protein portion to the GAL4 DNA binding motifs 5′-upstream of the luciferase reporter element which is stably integrated in the genome of the cell line. There is only little expression of the luciferase reporter gene in the absence of a PPARdelta ligand if fatty acid-depleted fetal calf serum (cs-FCS) is used in the assay. PPARdelta ligands bind and activate the PPARdelta fusion protein and thereby stimulate expression of the luciferase reporter gene. […]

| Compound | EC50 [nM] |
| --- | --- |
| CCOc1cc(C(F)(F)F)ccc1C(=O)NC1Cc2ccc(S(=O)(=O)Nc3nnc(C(C)C)s3)cc2C1 (racemic) [Example 1, 2-Ethoxy-N-[5-(5-isopropyl-[1,3,4]thiadiazol-2-ylsulfamoyl)-indan-2-yl]-4-trifluoromethyl-benzamide] | 1 |
| CCOc1cc(C(F)(F)F)ccc1C(=O)N[C@H]1CCc2ccc(S(=O)(=O)Nc3nnc(C(C)C)s3)cc2C1 [Example 5, 2-Ethoxy-N-[(S)-7-(5-isopropyl-[1,3,4]thiadiazol-2-ylsulfamoyl)-1,2,3,4-tetrahydro-naphthalen-2-yl]-4-trifluoromethyl-benzamide] | 600 |
| CCOc1cc(C(F)(F)F)ccc1C(=O)N[C@@H]1CCc2ccc(S(=O)(=O)Nc3nnc(C(C)C)s3)cc2C1 [Example 6, 2-Ethoxi-N-[(R)-7-(5-isopropyl-[1,3,4]thiadiazol-2-ylsulfamoyl)-1,2,3,4-tetrahydro-naphthalene-2-yl]-4-trifluoromethyl-benzamide] | 600 |
| CCOc1cc(C(F)(F)F)sc1C(=O)NC1Cc2ccc(S(=O)(=O)Nc3nnc(C(C)C)s3)cc2C1 (stereo not drawn) [Example 11, 3-Ethoxy-5-trifluoromethyl-thiophene-2-carboxylic acid [5-(5-isopropyl-[1,3,4]thiadiazol-2-ylsulfamoyl)-indan-2-yl]-amide] | 1 |

Further lines, results first:

| EC50 [nM] | Compound |
| --- | --- |
| 1 | CCOc1cc(C(F)(F)F)ccc1C(=O)NC1Cc2ccc(S(=O)(=O)Nc3nnc(C(C)C)s3)cc2C1 (single isomer, unassigned; enantiomer 1) [Example 1.1, 2-Ethoxy-N-[5-(5-isopropyl-[1,3,4]thiadiazol-2-ylsulfamoyl)-indan-2-yl]-4-trifluoromethyl-benzamide (Enantiomer 1)] |
| 50 | CCOc1cc(C(F)(F)F)ccc1C(=O)NC1Cc2ccc(S(=O)(=O)Nc3nnc(C(C)C)s3)cc2C1 (single isomer, unassigned; enantiomer 2) [Example 1.2, 2-Ethoxy-N-[5-(5-isopropyl-[1,3,4]thiadiazol-2-ylsulfamoyl)-indan-2-yl]-4-trifluoromethyl-benzamide (Enantiomer 2)] |
